# Test results reported in patent US4628047A (priority 1982, dated 1986).
# Like-named read-outs stand apart in the source and are kept apart here.
# Experiments:
# [1] = test system: B16 melanoma cells F10; test: Antitumor enhancement effect in solid tumor cells, B16 F10; type: cell-based; details: on VCR, diltiazem 0 μM
# [2] = test system: chronic myeloplast
# [3] = test system: K562; test: Growth inhibition of K562 leukemia cells; type: cell-based, human; details: for IC50: Homo sapiens, K562, VCR; for Enhancement effect: on VCR
# [4] = test system: P388 leukemia cells having resistance to vincristine; test: Growth inhibition of VCR-resistant P388 leukemia cells (P388/VCR); type: cell-based; details: for IC50: Mus musculus; for Enhancement effect: on VCR
# [5] = test system: Colon 26 tumor cells KL-2; test: Antitumor enhancement effect in solid tumor cells, colon 26 KL-2; type: cell-based; details: on VCR, diltiazem 0 μM
# [6] = test system: VCR-resistant P388 leukemia cells; test: Antitumor enhancement effects in mice inoculated with VCR-resistant P388 leukemia cells; type: in vivo, CDF1 female mice; details: i.p., 10 days
# [7] = test system: B16 melanoma cells B2; test: Antitumor enhancement effect in solid tumor cells, B16 B2; type: cell-based; details: on VCR, diltiazem 0 μM
# [8] = test system: Colon 26 tumor cells N-1; test: Antitumor enhancement effect in solid tumor cells, colon 26 N-1; type: cell-based; details: on VCR, diltiazem 0 μM
# [9] = test system: B16 melanoma cells B16 mix; test: Antitumor enhancement effect in solid tumor cells, B16 mix; type: cell-based; details: on VCR, diltiazem 0 μM
# [10] = test system: B16 melanoma cells BL-6; test: Antitumor enhancement effect in solid tumor cells, B16 BL-6; type: cell-based; details: on VCR, diltiazem 0 μM
# [11] = test system: B16 melanoma cells F1; test: Antitumor enhancement effect in solid tumor cells, B16 F1; type: cell-based; details: on VCR, diltiazem 0 μM
# [12] = test system: Colon 26 tumor cells C26 mix; test: Antitumor enhancement effect in solid tumor cells, C26 mix; type: cell-based; details: on VCR, diltiazem 0 μM
# [13] = test system: Colon 26 tumor cells NL-33; test: Antitumor enhancement effect in solid tumor cells, colon 26 NL-33; type: cell-based; details: on VCR, diltiazem 0 μM
# [14] = test system: Colon 26 tumor cells N-5; test: Antitumor enhancement effect in solid tumor cells, colon 26 N-5; type: cell-based; details: on VCR, diltiazem 0 μM
# [15] = test system: P388 leukemia cells; test: Growth inhibition of non-resistant P388 leukemia cells; type: cell-based; details: for IC50: Mus musculus, P388, VCR
# [16] = test system: K562/VCR; test: Growth inhibition of VCR-resistant K562 leukemia cells (K562/VCR); type: cell-based, human; details: for IC50: Homo sapiens, VCR; for Enhancement effect: on VCR
# [17] = test system: P388 leukemia cells having no resistance or resistance to VCR and ADM and human leukemia cells K562; test: Antitumor enhancement effects of diltiazem in resistant and non-resistant tumor cells (summary); type: cell-based; details: regardless of whether the tumor cells are non-resistant or resistant
# Text: Antitumor enhancement effects of diltiazem in resistant and non-resistant tumor cells: […]
# [18] = test system: P388/ADM; test: Growth inhibition of ADM-resistant P388 leukemia cells (P388/ADM); type: cell-based; details: on ADM
smiles,measurement,setting,value
"CC[C@]1(O)C[C@H]2CN(CCc3c([nH]c4ccccc34)[C@@](C(=O)OC)(c3cc4c(cc3OC)N(C=O)[C@H]3[C@@](O)(C(=O)OC)[C@H](OC(C)=O)[C@]5(CC)C=CCN6CC[C@]43[C@@H]65)C2)C1 [VCR, vincristine]",ratio of IC50 dose (enhancement effect of diltiazem),[1],1.0
same,number of leukocytes and splenoma,[2]; after third administration of vincristine 1 mg per week,the number of leukocytes and the splenoma still increased
same,number of leukocytes and splenoma,[2]; vincristine 1 mg per week and predonisolone 60 mg per day,the number of leukocytes and the splenoma were temporarity somewhat recovered
same,IC50,[3]; diltiazem 0 μM,2.33 ± 0.24 ng/mL
same,IC50,[3]; with diltiazem 10 μM,1.52 ± 0.09 ng/mL
same,IC50,[3]; with diltiazem 35 μM,1 ± 0.17 ng/mL
same,IC50,[3]; with diltiazem 100 μM,0.69 ± 0.1 ng/mL
same,Enhancement effect,[3]; diltiazem 0 μM,1
same,IC50,"[4]; P388, VCR, diltiazem 0 μM, P388/VCR",29.7 ± 2.87 ng/mL
same,IC50,"[4]; P388, VCR, with diltiazem 10 μM, P388/VCR",3.07 ± 0.09 ng/mL
same,IC50,"[4]; P388, VCR, with diltiazem 35 μM, P388/VCR",1.03 ± 0.06 ng/mL
same,IC50,"[4]; P388, VCR, with diltiazem 100 μM, P388/VCR",0.55 ± 0.17 ng/mL
same,IC50,"[4]; P388, read-out: concentration of vincristine showing 50% inhibition of the resistant cells, with diltiazem (hydrochloride) 35 μM or 100 μM",≤ 1 ng/mL
same,Enhancement effect,"[4]; diltiazem 0 μM, P388/VCR",1
same,ratio of IC50 dose (enhancement effect of diltiazem),[5],1.0
same,Survival time,[6]; VCR 30 μg/kg alone,10.6 ± 2.1 days
same,T/C,[6]; VCR 30 μg/kg alone,93%
same,T/V,[6]; VCR 30 μg/kg alone,100%
same,Survival time,[6]; VCR 100 μg/kg alone,10.8 ± 1.3 days
same,T/C,[6]; VCR 100 μg/kg alone,95%
same,T/V,[6]; VCR 100 μg/kg alone,100%
same,Survival time,[6]; VCR 200 μg/kg alone,12.4 ± 1.0 days
same,T/C,[6]; VCR 200 μg/kg alone,109%
same,T/V,[6]; VCR 200 μg/kg alone,100%
same,ratio of IC50 dose (enhancement effect of diltiazem),[7],1.0
same,ratio of IC50 dose (enhancement effect of diltiazem),[8],1.0
same,ratio of IC50 dose (enhancement effect of diltiazem),[9],1.0
same,ratio of IC50 dose (enhancement effect of diltiazem),[10],1.0
same,ratio of IC50 dose (enhancement effect of diltiazem),[11],1.0
same,ratio of IC50 dose (enhancement effect of diltiazem),[12],1.0
same,ratio of IC50 dose (enhancement effect of diltiazem),[13],1.0
same,ratio of IC50 dose (enhancement effect of diltiazem),[14],1.0
same,IC50,[15]; diltiazem 0 μM,1.88 ± 0.13 ng/mL
same,IC50,[15]; with diltiazem 10 μM,1.43 ± 0.12 ng/mL
same,IC50,[15]; with diltiazem 35 μM,0.56 ± 0.06 ng/mL
same,IC50,[15]; with diltiazem 100 μM,0.45 ± 0.02 ng/mL
same,Enhancement effect,"[15]; on VCR, diltiazem 0 μM",1
same,IC50,[16]; diltiazem 0 μM,200 ± 16.3 ng/mL
same,IC50,[16]; with diltiazem 10 μM,23 ± 2.16 ng/mL
same,IC50,[16]; with diltiazem 35 μM,4.1 ± 0.36 ng/mL
same,IC50,[16]; with diltiazem 100 μM,2.57 ± 0.41 ng/mL
same,Enhancement effect,[16]; diltiazem 0 μM,1
"COc1ccc([C@@H]2Sc3ccccc3N(CCN(C)C)C(=O)[C@@H]2OC(C)=O)cc1 [Diltiazem, d-3-acetoxy-cis-2,3-dihydro-5-[2-(dimethylamino)ethyl]-2-(p-methoxyphenyl)-1,5-benzothiazepin-4(5H)-one]",Enhancement effect,[3]; diltiazem 10 μM,1.5
same,Enhancement effect,[3]; diltiazem 35 μM,2.3
same,Enhancement effect,[3]; diltiazem 100 μM,3.4
same,Enhancement effect,"[4]; diltiazem 10 μM, P388/VCR",9.7
same,Enhancement effect,"[4]; diltiazem 35 μM, P388/VCR",28.8
same,Enhancement effect,"[4]; diltiazem 100 μM, P388/VCR",54.0
same,"antitumor activity of the agents (ADM, VCR)",[17],the antitumor activity of the agents is enhanced by diltiazem
same,Enhancement effect,"[15]; on ADM, diltiazem 10 μM",1.3
same,Enhancement effect,"[15]; on ADM, diltiazem 35 μM",1.4
same,Enhancement effect,"[15]; on ADM, diltiazem 100 μM",1.7
same,Enhancement effect,"[15]; on VCR, diltiazem 10 μM",1.3
same,Enhancement effect,"[15]; on VCR, diltiazem 35 μM",3.4
same,Enhancement effect,"[15]; on VCR, diltiazem 100 μM",4.2
same,Enhancement effect,[18]; diltiazem 10 μM,4.5
same,Enhancement effect,[18]; diltiazem 35 μM,11.0
same,Enhancement effect,[18]; diltiazem 100 μM,19.3
same,Enhancement effect,[16]; diltiazem 10 μM,8.7
same,Enhancement effect,[16]; diltiazem 35 μM,48.8
same,Enhancement effect,[16]; diltiazem 100 μM,77.8
